Here are results for five compounds from publication PMC7334220, “Diamond Blackfan anemia is mediated by hyperactive Nemo-like kinase” (Nature Communications, 2020).

Read-outs that look alike come from different tables or passages of the source.

One experiment has as its target T1, NLK (Homo sapiens, UniProt Q9UBE8).
T1 construct: NLK, p38, or ALK5 for in vitro kinase assays were immunopurified from Kp53A1 cells; endogenous in cells; immunoprecipitated with anti-NLK (Abcam AB97642)
T1 sequence (Q9UBE8 1-527): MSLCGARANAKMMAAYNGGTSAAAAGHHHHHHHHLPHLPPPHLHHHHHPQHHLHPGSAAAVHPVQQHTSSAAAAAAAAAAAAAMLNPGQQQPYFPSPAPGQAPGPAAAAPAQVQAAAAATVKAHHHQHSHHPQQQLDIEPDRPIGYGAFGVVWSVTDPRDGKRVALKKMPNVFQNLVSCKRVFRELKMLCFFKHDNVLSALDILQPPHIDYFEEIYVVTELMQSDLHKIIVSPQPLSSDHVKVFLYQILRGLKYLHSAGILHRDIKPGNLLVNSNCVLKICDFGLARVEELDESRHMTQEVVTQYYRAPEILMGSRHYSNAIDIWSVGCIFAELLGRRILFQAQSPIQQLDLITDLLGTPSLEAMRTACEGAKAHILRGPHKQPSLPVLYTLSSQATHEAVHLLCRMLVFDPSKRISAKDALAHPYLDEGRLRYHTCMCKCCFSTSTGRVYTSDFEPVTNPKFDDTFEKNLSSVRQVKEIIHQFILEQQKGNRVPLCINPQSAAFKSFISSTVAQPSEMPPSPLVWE
Briefly: NLK in vitro kinase assay (NLK, c-Myb, Raptor substrates). Type of experiment: biochemical. On the procedure: Equivalent protein was loaded between samples. b—blue Transduced progenitors were differentiated for 15 days and sorted for surface expression of CD235 + , CD41 + and CD11b + population NLK mRNA was assessed by qRT-PCR. c Control and shRPS19-transduced CB progenitors were differentiated for 10 days prior to separation into CD71^+ and CD71^- populations and assessed for pThr298-NLK phosphorylation by Western blot analysis. d—purple CB CD34 + progenitors were transduced with shRNA against luciferase (shLuc) or RPS19 (shRPS19) along with CFP-NLK and YFP-NLK and differentiated for 10 days. NLK dimerization was quantified by FRET. e—left panel NLK was immunoprecipitated from transduced differentiating CD71^+ and CD71^- populations after 10 days, and incubated in the presence of ATP, Mg^2+ and dephosphorylated NLK (i orange), c-Myb (ii—blue) and Raptor (iii—green) for 30 min at 37 °C. Phosphorylation was detected by a combination of anti^-phosphoserine-HRP and anti-phosphothreonine-HRP antibodies, or mouse anti-phosphoserine and anti-mouse-HRP antibodies. e—right panel For comparison, NLK in vitro kinase activity was assessed from CD235^+, CD41^+ and CD11b^+ populations enriched after identical treatments. f A panel of eight small molecule p38 inhibitors were titrated into in vitro kinase assays in the presence of activated NLK or p38 from stimulated Kp53A1 cells. The IC50 for NLK and p38 for each compound was calculated. The data are represented diagrammatically with IC50 values represented as vertical lines along a concentration gradient for NLK and p38. Kinase activity is represented as blue and the extent of inhibition is depicted in white. […] Bars represent means ± SD with individual data points overlaid. n = 3 independent experiments performed in triplicate.Statistics: two-tailed Student’s t test, significant *p < 0.05. Also see Supplementary Figs. 3 and 4. Source data are provided as a Source Data file. […] Inhibitors were added to cells at indicated concentrations with a final DMSO concentration of 0.5%. […] IC50 calculations were obtained using 8–9 concentrations of compound and generated using the IC50 Calculator software by AAT Bioquest®. NLK, p38, or ALK5 for in vitro kinase assays were immunopurified from Kp53A1 cells. NLK activation was induced by incubating cells at 32° for 24-48 h, p38 by stimulating with IL-3, IL-6, SCF, and Epo at the same concentrations used for differentiating erythroid progenitors.
For NLK kinase analysis, cultures were treated as indicated and lysed for 30 min at 4 °C in 750 μl of kinase lysis buffer (50 mM Tris [pH 7.4], 5 mM EDTA, 250 mM NaCl, 0.1% Triton X-100, 50 mM NaF, 0.1 trypsin inhibitor unit of aprotinin per ml, 50 μg of phenylmethylsulfonyl fluoride per ml, 100 μM sodium vanadate, 1 μg of leupeptin per ml). For TGFβR1 kinase analysis, cells were lysed in membrane kinase buffer (10 mM Tris-HCl (pH8.0), 140 mM NaCl, 300 mM KCl, 0.5% Triton X-100, and 0.5% sodium deoxycholate with complete protease inhibitor cocktail (Roche)). Extracts were clarified, and equivalent protein was incubated overnight at 4 °C with antibody (NLK: #AB97642; Abcam, TGFβR1: V22; Santa Cruz Biotechnology). Immune complexes were collected with Catch and Release® V2.0 Reversible Immunoprecipitation System and diluted in kinase buffer (25 mM Tris [pH 7.4], 10 mM MgCl2, 1 mM dithiothreitol). When cell numbers were limiting, NLK activity was amplified by adding 0.5 µg dephosphorylated NLK prior to performing kinase reaction. 50 μl of kinase buffer containing NLK or TGFβR1 sample and 5 μM ATP was incubated in the presence of biotinylated substrate (NLK, c-Myb, or Raptor for NLK and Smad2 or Smad3 for TGFβR1) immobilized on streptavidin-coated 96-well plates.

Experiment [1] concerns RPS19-insufficient cord blood CD34+ HSPCs. Briefly: In vitro differentiation of cord blood CD34+ HSPCs transduced with shRNA against RPS19 (cell count and flow cytometry). Type of experiment: cell-based, human. On the procedure:
Cells were plated at 2000 cell per well in 96-well plates in the presence or absence of doxycycline. Relative amounts of live cells were quantified by luciferase-based Cell titer-Glo® assay. b TGFβR1 inhibitors were assessed for their ability to increase cell expansion in RPS19-insuffiency. As a control, vehicle alone (no doxycycline) is represented at the far left while all other samples were treated with doxycycline to induce RPS19-insufficiency. c Kit^+ erythroid progenitors were grown in the absence of doxycycline and in the presence of 10 µM of indicated compound. In addition, cells were treated with 5 ng/ml of TGFβ1 for 5 days before being subjected to Cell titer-Glo® assay. d Differentiating cord blood CD34^+ progenitors were transduced with shRNA against luciferase or RPS19 and treated with inhibitors at working concentrations for TGFβ inhibition every three days. […] Cells were counted and CD235^+ erythroid (i and iii) and CD11b^+ myeloid cell (ii and iv) percentages were determined by flow cytometry. The number of erythroid or myeloid cells is expressed as a percentage of the number of that lineage with no cytokine or drug treatment. Bars represent means ± SD with individual data points overlaid. n = 3 independent experiments performed in triplicate. Statistics: two-tailed Student’s t test, significant *p < 0.05. Also see Supplementary Fig. 1. Erythroid expansion is depicted in red while myeloid is in purple. Source data are provided as a Source Data file.
Cells were counted and assessed for cell surface expression of CD235. b Lin-Kit^+ hematopoietic progenitors were obtained from three mouse embryos expressing tetracycline-inducible shRNA against RPS19 at day E14.5 or three untreated mice, and thee mature RPL11^+/+ or three mature RPL11^+/lox mice treated with tamoxifen for eight weeks. […] Values were expressed as a percentage relative to untreated controls. c, d Intracellular phosphorylation of NLK at Thr298 was determined by capillary electrophoresis using the Peggy Sue™ Automated Western blotting platform. After lysis, 4 µg of protein from the CD235^+ population was probed against pThr298-NLK and normalized to GAPDH. […] After counting the total cell population, the ratio of CD235^+ erythroblasts was determined by flow cytometry and number of CD235^+ erythroblasts calculated. This was expressed as a percentage of the average number of erythroid cells present in untreated healthy controls. f NLK phosphorylation was assessed by capillary electrophoresis as above. Bars represent means ± SD with individual data points overlaid. […] Statistics: two-tailed Student’s t test, significant *p < 0.05. Also see Supplementary Fig. 8. Source data are provided as a Source Data file.
Primary human CD34^+ hematopoietic stem and progenitor cells were purified from cord or peripheral blood (New York Blood Center) or from human fetal liver tissue (Advanced Bioscience Resources and University of California, Los Angeles Center for AIDS Research) by using magnetic-activated cell sorting (Miltenyi Biotec) and were cryopreserved. Upon thawing, cells were cultured in x-Vivo15 media (Lonza) containing 10% fetal bovine serum, fms-related tyrosine kinase 3 (50 ng/ml), […] (50 ng/ml), interleukin-3 (IL-3; 20 ng/ml), interleukin-6 (IL-6; 20 ng/ml), and stem cell factor (50 ng/ml). When applied, TGFβ1 was added at 5 ng/ml. Kp53A1 cells were obtained from Javier Leon and cultured in DMEM supplemented with 10% fetal bovine serum at 37 or 32 °C.

The subject of experiment [2] is ribosome-competent cord blood CD34+ HSPCs (shLuc). Briefly: In vitro differentiation of cord blood CD34+ HSPCs transduced with control shRNA (luciferase). Type of experiment: cell-based, human. As to conditions: ribosome-competent cells; 5 ng/ml TGFβ1; 5 µM compound; 15 days; Fig. 1e. On the procedure: Lin-Kit^+ fetal liver cells were obtained from mouse embryos expressing tet-on shRNA against RPS19, at day E14.5-15.5. Cells were plated at 2000 cell per well in 96-well plates in the presence or absence of doxycycline. Relative amounts of live cells were quantified by luciferase-based Cell titer-Glo® assay. b TGFβR1 inhibitors were assessed for their ability to increase cell expansion in RPS19-insuffiency. As a control, vehicle alone (no doxycycline) is represented at the far left while all other samples were treated with doxycycline to induce RPS19-insufficiency. c Kit^+ erythroid progenitors were grown in the absence of doxycycline and in the presence of 10 µM of indicated compound. In addition, cells were treated with 5 ng/ml of TGFβ1 for 5 days before being subjected to Cell titer-Glo® assay. d Differentiating cord blood CD34^+ progenitors were transduced with shRNA against luciferase or RPS19 and treated with inhibitors at working concentrations for TGFβ inhibition every three days. […] Cells were counted and CD235^+ erythroid (i and iii) and CD11b^+ myeloid cell (ii and iv) percentages were determined by flow cytometry. The number of erythroid or myeloid cells is expressed as a percentage of the number of that lineage with no cytokine or drug treatment. […]
Fig. 8 NLK inhibition increases expansion of erythroid progenitors from human and murine models of DBA. a Human cord blood CD34^+ progenitors were transduced with lentivirus co-expressing GFP with shRNA against luciferase (shLuc), RPS19 (shRPS19), or RPL11 (shRPL11). […] Cells were counted and assessed for cell surface expression of CD235. b Lin-Kit^+ hematopoietic progenitors were obtained from three mouse embryos expressing tetracycline-inducible shRNA against RPS19 at day E14.5 or three untreated mice, and thee mature RPL11^+/+ or three mature RPL11^+/lox mice treated with tamoxifen for eight weeks. […] Values were expressed as a percentage relative to untreated controls. c, d Intracellular phosphorylation of NLK at Thr298 was determined by capillary electrophoresis using the Peggy Sue™ Automated Western blotting platform. […]

Another experiment concerns p38. The conditions noted are these: reported, no reference given; read-out: reported IC50 against p38; cited from earlier work.
[3] abbreviates: Fig. 3f, activated NLK from stimulated Kp53A1 cells, read-out: NLK Observed IC50.

Turning to `CCc1nc(-c2cccc(C)c2)c(-c2ccnc(NC(=O)c3ccccc3)c2)s1` [TAK-715], the IC50 at NLK (setting [3]) was determined as 9300 nM.

As to `Cn1c(NC[C@@H](N)Cc2ccccc2)nc(-c2ccncc2)c(-c2ccc3ccccc3c2)c1=O` [AMG-548], the IC50 at NLK (setting [3]) came out at 3.6 nM.

With `Cc1cccc(-c2[nH]c(C(C)(C)C)nc2-c2ccc3nccnc3c2)n1` [SB525334], in experiment [1] (RPS19-insufficient cells, 5 ng/ml TGFβ1, 5 µM, Fig. 1e.iii), the “erythropoiesis, % of controls, in TGFβ-treated cells” value is 128.6%. Besides, the “effect on erythropoiesis of cells not treated with TGFβ” value in experiment [1] (RPS19-insufficient cells, 5 µM, Fig. 1e.iii) was “did not influence”. In experiment [2], the “restoration of erythroid and myeloid expansion of TGFβ-treated cells” value is on record as “restored”.

Take `C[S+]([O-])c1ccc(-c2nc(-c3ccncc3)c(-c3ccc(F)cc3)[nH]2)cc1` (centres unmarked) [SB203580]: the “erythroid expansion (CD235) in RPS19-insufficient HSPCs” value in experiment [1] (12 days, recommended concentrations, rebuttal Experiment 12) is on record as “significantly increased”. The “improvement of erythropoiesis (comparison of SD208 with p38 inhibitors)” value in experiment [1] (CD235+, 12 days, recommended concentrations, Supplementary Fig. 2b) was “improved erythropoiesis”.

Turning to `Cc1cccc(-c2nn3c(c2-c2ccnc4ccc(C(N)=O)cc24)CCC3)n1` [Galunisertib], in experiment [1] (CD235+ erythroid cells after 15 days, inhibitors at working concentrations for TGFβ inhibition every three days, Fig. 1d), the “increase of erythropoiesis in RPS19-insufficiency compared with control treated cells” value turned out to be 3.2 fold. The IC50 at NLK (Supplementary Fig. 1e, read-out: IC50 against NLK) was 1340 nM; with p38 it was 405 nM. Moreover, at NLK (added to activated NLK in vitro, Supplementary Fig. 1c), the “inhibition of NLK-mediated phosphorylation of NLK substrates NLK, c-Myb and Raptor” value is recorded as 40–45%.
